target: T1, CCK-A (Cavia porcellus, UniProt Q63931); assay: CCK-receptor bioassay, isolated guinea-pig gall-bladder strips, CCK-8 as agonist; type: cell-based, male Dunkin-Hartley guinea-pigs; conditions: negative logarithm (base 10) of equilibrium dissociation constant (pKB), CCK-8 agonist, test compound incubated 60 minutes
T1 construct: Isolated, strip preparations were prepared from gall-bladders removed from male Dunkin-Hartley guinea-pigs; from tissue; host or cells: isolated gall-bladder strips of male Dunkin-Hartley guinea-pigs
T1 sequence (Q63931 1-430): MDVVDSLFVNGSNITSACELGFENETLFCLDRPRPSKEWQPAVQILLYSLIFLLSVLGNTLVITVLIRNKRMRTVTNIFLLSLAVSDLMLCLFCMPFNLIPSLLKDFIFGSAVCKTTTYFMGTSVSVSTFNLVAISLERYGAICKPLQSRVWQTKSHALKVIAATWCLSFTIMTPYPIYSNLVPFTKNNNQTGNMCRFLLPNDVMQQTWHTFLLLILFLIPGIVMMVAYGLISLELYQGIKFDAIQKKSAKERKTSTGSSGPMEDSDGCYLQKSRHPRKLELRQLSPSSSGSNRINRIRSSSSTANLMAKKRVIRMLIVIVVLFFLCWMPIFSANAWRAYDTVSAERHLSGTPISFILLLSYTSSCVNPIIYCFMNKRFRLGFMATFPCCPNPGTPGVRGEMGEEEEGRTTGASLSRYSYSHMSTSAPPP
Experimental: The compounds were assayed using the CCK-receptor bioassay as follows:
Isolated, strip preparations were prepared from gall-bladders removed from male Dunkin-Hartley guinea-pigs (250-500 g body weight) according to the method of La Morte, W. W., et al., J.P.E.T., 217, (3), 638-644 (1981).
The complete gall-bladder is removed and opened along the longitudinal axis. Strips measuring 3 mm in the longitudinal axis and 1 mm in the transverse axis are cut and then tied with cotton to stainless steel wires. The preparation is connected to a GRASS FTO3 isometric transducer under an initial loading tension of 1 g and is immersed in 20 mls of Krebs solution maintained at 37° C. and gassed with 95% O2 /5% CO2. The composition (mM) of the Krebs solution is as follows: Na^+ 143, K^+ 5.9, Ca^2+ 0.5, Mg^2+ 1.2, Cl^- 128, H2 PO4^- 2.2, HCO3^- 24.9, SO4^2- 1.2, dextrose 10. After 30 mins the preparation is washed. Drug addition begins after an initial 90 min stabilisation period. Responses are measured as changes in tension from that immediately prior to any drug addition. Single cumulative agonist concentration-effect curves, using CCK-8 as agonist, are obtained on each preparation in the absence and presence of test compound which has been incubated for 60 minutes. The antagonist activity of the test compound is estimated and expressed as the negative logarithm (base 10) of the equilibrium dissociation constants (pKB) using the modifications of standard competitive analysis described by Black et al., Br. J. Pharmacol.,86,571-579, (1985) and Shankley et al., Br. J. Pharmacol.,94,264-274 (1988).

pKB	Structure (SMILES)
5.40 ± 0.18	O=C(O)C[C@H](NS(=O)(=O)Cc1ccc2ccccc2c1)C(=O)NCCc1ccccc1 [Example 10, Naphthylmethanesulphonyl-L-aspartyl (2-phenethyl)amide]
6.49 ± 0.38	COc1ccc2cc(S(=O)(=O)N[C@@H](CC(=O)O)C(=O)NCCc3ccccc3)ccc2c1Cl [Example 13, 5-Chloro-6-methoxynaphthalenesulphonyl-L-aspartyl (2-phenethyl)amide]
6.27 ± 0.22	O=C(O)C[C@H](NS(=O)(=O)/C=C/c1ccccc1)C(=O)NCCc1ccccc1 [Example 22, 2-phenethenylsulphonyl-L-aspartyl (2-phenethyl)amide]

same assay, conditions: negative logarithm (base 10) of equilibrium dissociation constant (pKB), CCK-8 agonist, test compound incubated 60 minutes, read-out: pK8 versus CCK (gallbladder) (converted)

Structure (SMILES)	Kb
O=C(O)C[C@H](NS(=O)(=O)c1ccc2ccccc2c1)C(=O)NCCc1ccccc1 [Example 1, 2-Naphthalenesulphonyl-L-aspartyl (2-phenethyl)amide]	324 nM
O=C(O)C[C@H](NS(=O)(=O)CCc1ccccc1)C(=O)NCCc1ccccc1 [Example 7, 2-phenylethanesulphonyl-L-aspartyl (2-phenethyl)amide]	3470 nM
O=C(O)C[C@H](NS(=O)(=O)c1ccc(Cl)c(Cl)c1)C(=O)NCCc1ccccc1 [Example 9, 3,4-Dichlorobenzenesulphonyl-L-aspartyl (2-phenethyl)amide]	1700 nM
COc1ccc2cc(S(=O)(=O)N[C@@H](CC(=O)O)C(=O)NCCc3ccccc3)ccc2c1 [Example 12, 6-Methoxynaphthalenesulphonyl-L-aspartyl (2-phenethyl)amide]	257 nM
COc1cc2cc(S(=O)(=O)N[C@@H](CC(=O)O)C(=O)NCCc3ccccc3)ccc2c(Cl)c1OC [Example 14, 5-Chloro-6,7-dimethoxynaphthalenesulphonyl-L-aspartyl (2-phenethyl)amide]	617 nM
O=C(O)C[C@@H](NS(=O)(=O)c1ccc2ccccc2c1)C(=O)NCCc1ccccc1 [Example 15, 2-Naphthalenesulphonyl-D-aspartyl (2-phenethyl)amide]	1200 nM
O=C(O)CC[C@H](NS(=O)(=O)c1ccc2ccccc2c1)C(=O)NCCc1ccccc1 [Example 16, 2-Naphthalenesulphonyl-L-glutamyl (2-phenethyl)amide]	724 nM

Results, then the compound that gave them:

Kb	Structure (SMILES)
269 nM	O=C(O)C[C@H](NS(=O)(=O)c1ccc2ccccc2c1)C(=O)NCCc1ccc(F)cc1 [Example 18, 2-Naphthalenesulphonyl-L-aspartyl (2(4-fluorophenethyl)amide)]
1020 nM	COc1ccc(CCNC(=O)[C@H](CC(=O)O)NS(=O)(=O)c2ccc3ccccc3c2)cc1 [Example 19, Naphthalenesulphonyl-L-aspartyl (2-(4-methoxyphenethyl)amide)]
11200 nM	NS(=O)(=O)c1ccc(CCNC(=O)[C@H](CC(=O)O)NS(=O)(=O)c2ccc3ccccc3c2)cc1 [Example 20, 2-Naphthalenesulphonyl-L-aspartyl (2-(4-sulphonamidophenethyl)amide)]
7240 nM	O=C(O)C[C@H](NS(=O)(=O)c1ccc2ccccc2c1)C(=O)N1CCc2ccccc2C1 [Example 21, 2-Naphthalenesulphonyl-L-aspartyl (1,2,3,4-tetrahydroisoquinolin)amide]
105 nM	O=C(O)C[C@H](NS(=O)(=O)c1ccc2ccccc2c1)C(=O)NCCCc1ccccc1 [Example 23, 2 -Naphthalenesulphonyl-L-aspartyl (3-phenylpropyl)amide]

— patent publication US5399748A, “Derivatives of aspartic acid and glutamic acid having anticholecystokinin activity” (James Black Foundation Limited, priority 1990, dated 1995)
